What all share (experiment): NCI tumour cell line growth inhibition, 48 h
In assay [1] the test system is 786-0.
Assay [2] deals with A549.
The test system of assay [3] is ACHN.
Assay [4] concerns CAKI-1.
For assay [5], the system named is HCC 2998.
Assay [6] relates to HT-29.
The subject of assay [7] is Hs-578T.
Assay [8] relates to IGROV-1.
Assay [9] deals with K562.
Assay [10] concerns M14.
The subject of assay [11] is MCF7.
Assay [12] relates to NCI-H23.
Assay [13] deals with OVCAR-4.
For assay [14], the system named is OVCAR-8.
For assay [15], the system named is SF-295.
Assay [16] relates to SN12C.
Assay [17] has as its system SW-620.
Assay [18] concerns Malme-3M.

The text below walks through data of ChEMBL document CHEMBL1201862, “PubChem BioAssay data set” (2004).

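All cell lines were grown in 96-well plates and treated with compound for 48 hours. GI50 is the concentration that inhibits growth by half.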 Activity calls are given as the source filed them. No stated cut-off is given here; in the data, active = GI50 up to about 1.1 µM and inactive = higher.

On to `CC(=O)O[C@H]1C(=O)[C@]2(C)[C@@H](OC(=O)OCC(O)CO)C[C@H]3OC[C@@]3(OC(C)=O)[C@H]2[C@H](OC(=O)c2ccccc2)[C@]2(O)C[C@H](OC(=O)[C@H](O)[C@@H](NC(=O)c3ccccc3)c3ccccc3)C(C)=C1C2(C)C` (stereo partly specified) [PACLITAXEL CERIBATE], for which the GI50 is < 0.01 µM (active) in assay [1]; < 0.01 µM (active) in [2]; 11.1 µM (inactive) in [3]; 0.893 µM (active) in assay [4]; < 0.01 µM (active) in [5]; < 0.01 µM (active) in assay [6]. Moreover, the GI50 in assay [7], in assay [8], in [9], in assay [10], in [11] and in assay [12] was < 0.01 µM (active) in each case. In addition, the GI50 in [13] was 17 µM (inactive); in assay [14], < 0.01 µM (active); in assay [15] it was < 0.01 µM (active); in assay [16] it was < 0.01 µM (active); in [17], < 0.01 µM (active).

As for `OCC1C2CCC3(OCCO3)C12` (stereo unspecified), the GI50 in [1], in assay [2], in [3], in assay [4], in [5] and in assay [6] was > 100 µM (inactive) each time. Besides, the GI50 in assay [8] is > 100 µM (inactive); in assay [9] it was > 100 µM (inactive); in assay [10], > 100 µM (inactive); in assay [11], > 100 µM (inactive); in [18], 57.3 µM (inactive); in assay [12], 18.2 µM (inactive). Also, the GI50 in [13], in assay [14], in [15], in [16] and in [17] was > 100 µM (inactive) throughout.

Consider `Cc1[nH]c2ccccc2c1C1=CC(=O)N(c2ccccc2)C1=O`, for which the GI50 is 10.8 µM (inactive) in [1]; 22.5 µM (inactive) in [2]; 23.2 µM (inactive) in assay [3]; 6.22 µM (inactive) in assay [4]; 1.75 µM (inactive) in assay [5]; 5.58 µM (inactive) in assay [6]. In addition, the GI50 is 8.22 µM (inactive) in assay [7]; 32.1 µM (inactive) in [8]; 6.37 µM (inactive) in assay [9]; 13.6 µM (inactive) in assay [10]; 5.28 µM (inactive) in assay [11]; 13.9 µM (inactive) in assay [18]. Also, the GI50 was 12.1 µM (inactive) in [12]; 14.8 µM (inactive) in [14]; 26.7 µM (inactive) in assay [15]; 13.8 µM (inactive) in assay [16]; 5.38 µM (inactive) in assay [17].

With `CN(C)c1ccc(/C=N/NC(=O)c2cnc3ccccc3c2)cc1`, the GI50 in [1] was 78.5 µM (inactive); in assay [2], > 100 µM (inactive); in [3] it was > 100 µM (inactive); in assay [4], > 100 µM (inactive); in [5], 42.1 µM (inactive); in assay [7], 25.5 µM (inactive). Besides, the GI50 was 51.1 µM (inactive) in assay [8]; > 100 µM (inactive) in [9]; > 100 µM (inactive) in [10]; > 100 µM (inactive) in assay [11]; 18.6 µM (inactive) in [18]; > 100 µM (inactive) in [12]. In addition, the GI50 in assay [13] is > 100 µM (inactive); in [14], 98.2 µM (inactive); in assay [15], 71.4 µM (inactive); in assay [16], > 100 µM (inactive); in assay [17], > 100 µM (inactive).

On to `NC(CCC(=O)NC(CSC(=O)N(O)c1ccc(Cl)cc1)C(=O)NCC(=O)O)C(=O)O` (stereo unspecified), for which the GI50 in assay [1], in [2], in assay [3], in assay [4], in assay [5] and in assay [6] was > 0.5 µM (active) each time. Further, the GI50 in assay [7], in [8], in [9], in assay [10], in [11] and in [12] was > 0.5 µM (active) throughout. For the same compound, the GI50 in [13], in assay [14], in assay [15], in assay [16] and in assay [17] was > 0.5 µM (active) in each case.

In the case of `CC(Cn1c(=O)oc2ccccc21)N(C)C` (stereo unspecified), the GI50 in assay [1], in assay [3], in assay [4], in [6], in assay [7] and in assay [8] was > 100 µM (inactive) throughout. Moreover, the GI50 in assay [9], in assay [10], in [11], in [18], in [12] and in assay [14] was > 100 µM (inactive) in each case. Moreover, the GI50 in [15], in [16] and in assay [17] was > 100 µM (inactive) each time.

On to `CSc1cnc2ccccc2c1Sc1cn(C)c2ccccc2c1=O`, for which the GI50 was 30.3 µM (inactive) in assay [1]; 8.17 µM (inactive) in assay [2]; > 100 µM (inactive) in assay [3]; 70.8 µM (inactive) in assay [5]; 58.5 µM (inactive) in [6]; 18.7 µM (inactive) in assay [8]. Moreover, the GI50 was 7.82 µM (inactive) in assay [9]; > 100 µM (inactive) in [10]; > 100 µM (inactive) in assay [18]; 19.5 µM (inactive) in [12]; 34.8 µM (inactive) in assay [13]; 18.5 µM (inactive) in [14]. The GI50 is 22.6 µM (inactive) in assay [15], 28.8 µM (inactive) in [16] and 70.6 µM (inactive) in [17].

Regarding `Cc1ccc(NC(=O)c2cc3ccccc3c(/N=N\c3ccccc3O)c2O)c(C)c1`, the GI50 in assay [1] was 1.32 µM (inactive); in assay [2], 2.25 µM (inactive); in [3], 1.88 µM (inactive); in assay [4], 1.19 µM (inactive); in assay [5], 5.06 µM (inactive); in [6], 3.13 µM (inactive). The GI50 in assay [7] is 1.64 µM (inactive); in assay [8] it was 1.14 µM (inactive); in assay [9], 3.09 µM (inactive); in [10], 0.839 µM (active); in assay [11] it was 2.16 µM (inactive); in assay [18] it was 0.809 µM (active). The GI50 was 1.63 µM (inactive) in assay [13], 0.859 µM (active) in [14], 0.863 µM (active) in assay [15] and 1.69 µM (inactive) in assay [17].

As for `O=C1CSc2nc3ccccc3n2/C=N\N1`, the GI50 in assay [1], in assay [2], in assay [3], in [4], in assay [5] and in assay [6] was > 100 µM (inactive) throughout. Besides, the GI50 in [9], in assay [10], in assay [11], in assay [12], in assay [13] and in [14] was > 100 µM (inactive) throughout. The GI50 in [15], in assay [16] and in [17] was > 100 µM (inactive) throughout.
